“Also recorded” adds a separate entry of the source.
Assays:
[1] = tested on: HSP70; experiment: HSP70 protein boosting in HL-1 cardiomyocytes after mild heat shock (Western blot); format: cell-based, mouse; set-up: key to HSP boosting HL-1 cardiomyocytes Protein HSP70: 0 = no induction HSP levels; + = 2-10-fold induction; ++ = 10-30-fold induction; +++ = > 30-fold induction; conditions: mild heat shock 44°C 10 min, then compound 10 μM for 6 hours; Western blot
Method: HL-1 atrial myocytes, a cell line derived from adult mouse atria were obtained from Dr. William Claycomb (Louisiana State University, New Orleans, La., USA). The myocytes were maintained in Complete Claycomb Medium (JRH, UK) supplemented with 100 μM norepinephrine stock (consisting of 10 mM norepinephrine (Sigma, The Netherlands) dissolved in 0.3 mM L-ascorbic acid (Sigma)), 4 mM L-glutamine (Gibco, The Netherlands) and 10% FBS (Sigma). The myocytes were cultured in flasks coated with 0.02% gelatin (Sigma), in a 5% CO2 atmosphere at 37° C.
HL-1 cardiomyocytes were subjected to a mild heat shock of 44° C. for 10 minutes. After a recovery of 10 minutes (37 degrees 5% CO2), compounds were added in a final concentration of 10 μM (dissolved in DMSO, final concentration 0.1%). To control myocytes, 0.1% DMSO was added. After six hours the cells were lysed in RIPA buffer and used for Western blotting as described previously.^3, 10
(§1) Western-blot analysis was performed as described previously^3, 10. Equal amount of protein in SDS-PAGE sample buffer was sonicated before separation on 10% PAA-SDS gels. After transfer to nitrocellulose membranes (Stratagene, The Netherlands), membranes were incubated with primary antibodies against HSP25 (Stressgen, The Netherlands, SPA-801, 1:1000), HSP27 (Stressgen, SPA-800, 1:1000), HSP70 (Stressgen, SPA-810, 1:1000), GAPDH (Affinity Reagents, The Netherlands) or PARP (Santa Cruz, The Netherlands, sc-7150, 1:500). Horseradish peroxidase-conjugated anti-mouse or anti-rabbit (Santa-Cruz Biotechnology, The Netherlands) was used as secondary antibody. Signals were detected by the ECL-detection method (Amersham, The Netherlands) and quantified by densitometry using GeneTools software from Syngene (The Netherlands).
Compounds were also screened for HSP70 boosting effects. Hereto, HL-1 cardiomyocytes were first subjected to a mild heat shock which activates the Heat Shock Factor. After the mild heat shock, compound (10 μM) was added to the medium of HL-1 cardiomyocytes for 6 hours, followed by determination of the HSP70 amount.

[2] = tested on: HSP27; experiment: HSP27 Western blot in MCF-7 cells; format: cell-based, human; set-up: key: + = P < 0.05; ++ = P < 0.01; +++ = P < 0.001; conditions: MCF-7 lysate, 16-20 hours
Method: (§2) MCF-7 breast cancer cells were cultured in DMEM supplemented with 10% FCS. Test compounds were added to the medium in a final concentration of […] for 16-20 hours. Ratio death and living cells was determined by using trypan blue staining of death cells. The cell pellets were lysed in RIPA buffer and used for Western blot analysis.
as §1

[3] = tested on: HSP70; experiment: HSP70 Western blot in MCF-7 cells; format: cell-based, human; set-up: key: + = P < 0.05; ++ = P < 0.01; +++ = P < 0.001; conditions: MCF-7 lysate, 16-20 hours
Method: as §2, §1

[4] = tested on: PARP; experiment: PARP cleavage in MCF-7 cells (Western blot); format: cell-based, human; set-up: key to Cell Death MCF-7 cancer cells PARP: 0 = no dead cells; + = P < 0.05; ++ = P < 0.01; +++ = P < 0.001; conditions: for Cell Death MCF-7 cancer cells PARP: MCF-7 lysate, Western blot, 16-20 hours; for PARP cleavage, indicative of pro-apoptotic caspase activation: MCF-7, 10 μM, 16 hours
Method: as §2, §1
Since we observed that some compounds aggravate tachypacing-induced contractile dysfunction, we next investigated if these compounds can induce programmed cell death in a human breast cancer cell-line MCF-7. Hereto, MCF-7 cells were incubated for 16 hours with 10 μM of a test compound after which the number of death and living cells was determined. In total 28 compounds were tested for cell death. […] GGA was used as a control as well as non-treated MCF-7 cells. […] The findings indicate that GGA-like compounds which aggravate heart failure can induce programmed cell death in MCF-7 breast cancer cell-line.

[5] = tested on: MCF-7 breast cancer cells; experiment: MCF-7 cell death, ratio death/living cells (trypan blue); format: cell-based, human; set-up: key to Cell Death MCF-7 cancer cells Death/living 100 μM: 0 = no dead cells; + = P < 0.05; ++ = P < 0.01; +++ = P < 0.001; conditions: for Cell Death MCF-7 cancer cells Death/living 100 μM: 16-20 hours, trypan blue; for cell death in MCF-7: 10 μM, 16 hours
Method: MCF-7 breast cancer cells were cultured in DMEM supplemented with 10% FCS. […] Ratio death and living cells was determined by using trypan blue staining of death cells. The cell pellets were lysed in RIPA buffer and used for Western blot analysis.
Since we observed that some compounds aggravate tachypacing-induced contractile dysfunction, we next investigated if these compounds can induce programmed cell death in a human breast cancer cell-line MCF-7. […] In total 28 compounds were tested for cell death. […] GGA was used as a control as well as non-treated MCF-7 cells. […] The findings indicate that GGA-like compounds which aggravate heart failure can induce programmed cell death in MCF-7 breast cancer cell-line.

SMILES	HSP boosting HL-1 cardiomyocytes Protein HSP70 [1]	Cell Death MCF-7 cancer cells HSP 27 [2]	Cell Death MCF-7 cancer cells HSP 70 [3]	Cell Death MCF-7 cancer cells PARP [4]	Cell Death MCF-7 cancer cells Death/living 100 μM [5]	PARP cleavage, indicative of pro-apoptotic caspase activation [4]	cell death in MCF-7 [5]
CCOC(=O)C(=Cc1ccccc1)C(=O)CCC=C(C)CCC=C(C)C (mixture of isomers) [Compound 84]	+ (+ = 2-10-fold induction)	–	–	–	–	–	–
CCOC(=O)CC(=O)CC/C=C(\C)CCC=C(C)C [Compound 21, (E)-Ethyl 7,11-dimethyl-3-oxododeca-6,10-dienoate]	0	–	–	–	–	–	–
CCOC(=O)C(C)C(=O)CC/C=C(\C)CCC=C(C)C (centres unmarked) [Compound 22]	0	–	–	–	–	–	–
CCCCCC(C(=O)CC/C=C(\C)CCC=C(C)C)C(=O)OCC (centres unmarked) [Compound 24]	0	–	–	–	–	–	–
CC(C)=CCC/C(C)=C/CCc1cc(C)n(C)n1 [Compound 33]	+ (+ = 2-10-fold induction)	–	–	–	–	–	–
CC(C)=CCC/C(C)=C/CCc1cc(C)n(CCC#N)n1 [Compound 34]	0	–	–	–	–	–	–
CC(C)=CCC/C(C)=C/CCc1cc(C)n(CCO)n1 [Compound 35]	0	–	–	–	–	–	–
CC(C)=CCC/C(C)=C/CCc1cc(C)nn1-c1ccc(F)cc1 [Compound 39]	0	+ (+ = P < 0.05)	0	0	0	–	–
CC(C)=CCC/C(C)=C/CCc1cc(C)nn1-c1ccccc1F [Compound 40]	0	–	–	–	–	–	–
CC(C)=CCC/C(C)=C/CCc1cc(C)nn1-c1ccc(C#N)cc1 [Compound 41]	0	+ (+ = P < 0.05)	0	+ (+ = P < 0.05)	+ (+ = P < 0.05)	induced PARP cleavage	significant increase in cell death; also recorded: induce cell death
CC(=O)NC/C=C(\C)CCC=C(C)C [Compound 43]	0	–	–	–	–	–	–
CCNC(=O)NC/C=C(\C)CCC=C(C)C [Compound 44]	0	–	–	–	–	–	–
CC(C)=CCC/C(C)=C/CNC(=O)Nc1cccc(F)c1 [Compound 45]	0	0	–	++ (++ = P < 0.01)	++ (++ = P < 0.01)	induced PARP cleavage	significant increase in cell death; also recorded: induce cell death
CC(C)=CCC/C(C)=C/CNS(=O)(=O)c1ccc(C)cc1 [Compound 53]	+ (+ = 2-10-fold induction)	–	–	–	–	–	–
CC(C)=CCC/C(C)=C/CNC(=O)CS(C)(=O)=O [Compound 56]	0	0	0	0	0	–	–
CC(C)=CCC/C(C)=C/CCc1cc(O)nn1C [Compound 64]	0	–	–	–	–	–	–
CC(C)=CCC/C(C)=C/CCc1cc(O)nn1Cc1ccccc1 [Compound 65]	0	+++ (+++ = P < 0.001)	++ (++ = P < 0.01)	++ (++ = P < 0.01)	++ (++ = P < 0.01)	induced PARP cleavage	significant increase in cell death; also recorded: induce cell death
CC(C)=CCC/C(C)=C/Cc1c(O)c2ccccc2oc1=O [Compound 66]	0	+ (+ = P < 0.05)	++ (++ = P < 0.01)	+ (+ = P < 0.05)	0	induced PARP cleavage	–
CCCC(C(=O)CC/C=C(\C)CCC=C(C)C)C(=O)OCC (centres unmarked) [Compound 70]	0	+++ (+++ = P < 0.001)	++ (++ = P < 0.01)	0	0	–	–
CCOC(=O)C(CC(=O)O)C(=O)CC/C=C(\C)CCC=C(C)C (centres unmarked) [Compound 78]	0	++ (++ = P < 0.01)	0	+ (+ = P < 0.05)	0	induced PARP cleavage	–
CCOC(=O)C(C/C=C(\C)CCC=C(C)C)C(C)=O (centres unmarked) [Compound 81]	0	–	–	–	–	–	–
CCOC(=O)C(C(=O)CC/C=C(\C)CCC=C(C)C)C(C)C(=O)O (centres unmarked) [Compound 82]	0	–	–	–	–	–	–
CCCC(=O)NC/C=C(\C)CCC=C(C)C [Compound 91]	+ (+ = 2-10-fold induction)	–	–	–	–	–	–
CCOC(=O)C(=O)NC/C=C(\C)CCC=C(C)C [Compound 97]	0	–	–	–	–	–	–
CC(C)=CCC/C(C)=C/CNC(=O)c1ccccc1O [Compound 101]	0	0	–	++ (++ = P < 0.01)	++ (++ = P < 0.01)	induced PARP cleavage	significant increase in cell death; also recorded: induce cell death
CCCC(=O)N(C/C=C(\C)CCC=C(C)C)C(=O)CCC [Compound 127]	0	–	0	0	0	–	–
CCCC(=O)C(CC)C(=O)N(C/C=C(\C)CCC=C(C)C)C(=O)CCC (centres unmarked) [Compound 128]	0	–	–	–	–	–	–

Reference: patent US9688651B2, “Geranyl geranyl acetone analogs and uses thereof” (NYKEN Holding B.V., priority 2012, dated 2017)
